Columns and labels:
MV4;11 cells = assay: Cell proliferation experiment (Alamar blue, 72 h), MV4;11; format: cell-based, human; settings: Homo sapiens, MV4-11, 72 h, MV4;11 cells, 72 h; read-out: Inhibitory activity IC50 of tested compounds on MV4;11 cells
In short: (§1)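 Cells were passaged at least twice, harvested in log phase and plated in 96 wells. Compound in complete medium was added at 5-fold gradient concentrations, duplicates per concentration. After 72 h culture, Alamar blue fluorescence was measured and IC50 fitted.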

Daudi cells = assay: Cell proliferation experiment, Daudi; format: cell-based, human; settings: Homo sapiens, Daudi, 72 h, Daudi cells, 72 h; read-out: Inhibitory activity IC50 of tested compounds on Daudi cells
In short: as §1

NCIH82 cells = assay: Cell proliferation experiment, NCI-H82; format: cell-based, human; settings: Homo sapiens, NCI-H82, 72 h, NCIH82 cells, 72 h; read-out: Inhibitory activity IC50 of tested compounds on NCIH82 cells
In short: as §1

HT-29 cells = assay: Cell proliferation experiment, HT-29; format: cell-based; settings: Homo sapiens; HT-29 cells, 72 h; read-out: Inhibitory activity IC50 of tested compounds on HT-29 cells
Experimental: (§2) Reagents: RPMI-1640 medium, McCoy's 5A medium, IMDM medium, MEM medium, L-15 medium, fetal bovine serum. Penicillin-Streptomycin double antibody, trypsin, etc., 2-mercaptoethanol, NEAA, pyruvate, etc.
(§3) The cells were cultured in conventional ways, and the cells should be passed at least 2 generations before plating. Cells at the logarithmic growth phase were collected, prepared into single cell suspensions and counted. The concentration of cells was adjusted to the desired concentration, and cells were inoculated into a 96-well cell culture plate at 100 μl per well. 100 μL of complete medium of the test compound were added to each well, set up 2 duplicate wells for each concentration, and diluted with a 5-fold gradient, and continued to culture for 72 h. All cells were subjected to IC50 test for corresponding samples. The experimental results are shown in Test Example 4.
(§4) The fluorescence intensity of each well was detected using the Alarm blue method, and IC50 was calculated.
(§5) IC50 was calculated according to the following formula:
(§6) Y=Max+(Min−Max)/[1+(X/IC50)×Slope]
(§7) wherein Min, Max and Slope represent the minimum, maximum and slope respectively.

U-87MG cells = assay: Cell proliferation experiment, U-87MG; format: cell-based; settings: Homo sapiens; U-87MG cells, 72 h; read-out: Inhibitory activity IC50 of tested compounds on U-87MG cells
Experimental: as §2, §3, §4, §5, §6, §7

HUVEC cells = assay: Cell proliferation experiment, HUVEC; format: cell-based; settings: Homo sapiens, 72 h, read-out: Inhibitory activity IC50 of tested compounds on HUVEC cells
Experimental: as §2, §3, §4, §5, §6, §7

Row | SMILES | IC50 (MV4;11 cells) [nM] | IC50 (Daudi cells) [nM] | IC50 (NCIH82 cells) [nM] | IC50 (HT-29 cells) [nM] | IC50 (U-87MG cells) [nM] | IC50 (HUVEC cells) [nM]
1 | CC[C@@H]1C(=O)N(C)c2cnc(Nc3ccc(C(=O)NC4CCN(CCCCNCCC#Cc5cccc6c5CN(C5CCC(=O)NC5=O)C6=O)CC4)cc3OC)nc2N1C1CCCC1 (stereo partly shown) [Compound 909] | ≤ 100 | ≤ 100 | ≤ 1000 | ≤ 300 | ≤ 100 | 
2 | CC[C@@H]1C(=O)N(C)c2cnc(Nc3ccc(C(=O)NC4CCN(CCCCN(C)CCC#Cc5cccc6c5CN(C5CCC(=O)NC5=O)C6=O)CC4)cc3OC)nc2N1C1CCCC1 (stereo partly shown) [Compound 910] | ≤ 100 | ≤ 100 | ≤ 1000 | ≤ 300 | 100 to 500 | 
3 | CC[C@@H]1C(=O)N(C)c2cnc(Nc3ccc(C(=O)NC4CCN(CCCN(C)CCCOCCCC#Cc5cccc6c5CN(C5CCC(=O)NC5=O)C6=O)CC4)cc3OC)nc2N1C1CCCC1 (stereo partly shown) [Compound 911] | ≤ 100 | ≤ 100 | ≤ 1000 | 300 to 1000 | ≤ 100 | 
4 | CC[C@@H]1C(=O)N(C)c2cnc(Nc3ccc(C(=O)NCCCOCCCNCCC#Cc4cccc5c4CN(C4CCC(=O)NC4=O)C5=O)cc3OC)nc2N1C1CCCC1 (stereo partly shown) [Compound 912] | ≤ 100 | ≤ 100 | ≤ 1000 | 300 to 1000 | ≤ 100 | 
5 | CC[C@@H]1C(=O)N(C)c2cnc(Nc3ccc(C(=O)NCCCOCCCN(C)CCC#Cc4cccc5c4CN(C4CCC(=O)NC4=O)C5=O)cc3OC)nc2N1C1CCCC1 (stereo partly shown) [Compound 913] | ≤ 100 | ≤ 100 | ≤ 1000 | 300 to 1000 | ≤ 100 | 
6 | CC[C@@H]1C(=O)N(C)c2cnc(Nc3ccc(C(=O)NC4CCN(CCCOCCCN(C)CCC#Cc5cccc6c5CN(C5CCC(=O)NC5=O)C6=O)CC4)cc3OC)nc2N1C1CCCC1 (stereo partly shown) [Compound 914] | ≤ 100 | ≤ 100 | ≤ 1000 | ≤ 300 | 100 to 500 | 
7 | CC[C@@H]1C(=O)N(C)c2cnc(Nc3ccc(C(=O)NC4CCN(CCOCCCNCCCC#Cc5cccc6c5CN(C5CCC(=O)NC5=O)C6=O)CC4)cc3OC)nc2N1C1CCCC1 (stereo partly shown) [Compound 915] | ≤ 100 | ≤ 100 | ≤ 1000 | 300 to 1000 | 100 to 500 | 
8 | CC[C@@H]1C(=O)N(C)c2cnc(Nc3ccc(C(=O)NC4CCN(CCOCCCN(C)CCC#Cc5cccc6c5CN(C5CCC(=O)NC5=O)C6=O)CC4)cc3OC)nc2N1C1CCCC1 (stereo partly shown) [Compound 916] | ≤ 100 | ≤ 100 | ≤ 1000 | ≤ 300 | 100 to 500 | 
9 | CC[C@@H]1C(=O)N(C)c2cnc(Nc3ccc(C(=O)NC4CCN(CCCOCCCNCCCC#Cc5cccc6c5CN(C5CCC(=O)NC5=O)C6=O)CC4)cc3OC)nc2N1C1CCCC1 (stereo partly shown) [Compound 917] | ≤ 100 | ≤ 100 | ≤ 1000 | 300 to 1000 | 100 to 500 | 
10 | CC[C@@H]1C(=O)N(C)c2cnc(Nc3ccc(C(=O)NC4CCN(CCCOCCNCCCC#Cc5cccc6c5CN(C5CCC(=O)NC5=O)C6=O)CC4)cc3OC)nc2N1C1CCCC1 (stereo partly shown) [Compound 918] | ≤ 100 | ≤ 100 | ≤ 1000 | 300 to 1000 | 100 to 500 | 
11 | CC[C@@H]1C(=O)N(C)c2cnc(Nc3ccc(C(=O)NC4CCN(CCCOCCCN(C)CCCC#Cc5cccc6c5CN(C5CCC(=O)NC5=O)C6=O)CC4)cc3OC)nc2N1C1CCCC1 (stereo partly shown) [Compound 919] | ≤ 100 | ≤ 100 | ≤ 1000 | 300 to 1000 | 100 to 500 | ≤ 1000
12 | CC[C@@H]1C(=O)N(C)c2cnc(Nc3ccc(C(=O)NCCCOCCOCCN(C)CCC#Cc4cccc5c4CN(C4CCC(=O)NC4=O)C5=O)cc3OC)nc2N1C1CCCC1 (stereo partly shown) [Compound 920] | ≤ 100 | ≤ 100 | ≤ 1000 | 300 to 1000 | ≤ 100 | ≤ 1000
13 | CC[C@@H]1C(=O)N(C)c2cnc(Nc3ccc(C(=O)NCCCNCCCOCCC#Cc4cccc5c4CN(C4CCC(=O)NC4=O)C5=O)cc3OC)nc2N1C1CCCC1 (stereo partly shown) [Compound 921] | ≤ 100 | 100 to 1000 | > 1000 | > 1000 | 100 to 500 | ≤ 1000
14 | CC[C@@H]1C(=O)N(C)c2cnc(Nc3ccc(C(=O)NC4CN(CCCOCCCNCCC#Cc5cccc6c5CN(C5CCC(=O)NC5=O)C6=O)C4)cc3OC)nc2N1C1CCCC1 (stereo partly shown) [Compound 931] | ≤ 100 | 100 to 1000 | ≤ 1000 | > 1000 | 500 to 1000 | 
